From patent US7868135B2, “Compositions of lipopeptide antibiotic derivatives and methods of use thereof” (priority 2003, dated 2011)
Read-outs that look alike come from different tables or passages of the source. Starred links: 1 amine or outer side, 2 acyl side, 3 side chain; linkers in the order of their positions; H or OH if unused. Positions of bridges follow the written chain, without caps; N, C: chain ends. Non-standard residues stand in square brackets, D forms with d. Residues, ends and D or L forms follow the SMILES beside them. ξ: configuration not given here. *: point of attachment. ξAbu(βξ-NH2) = CC(N[*:3])C(N[*:1])C(=O)[*:2]; X39 = C=CC(=O)NC(C)C(N[*:1])C(=O)[*:2]; Pentadecanoyl = CCCCCCCCCCCCCCC(=O)*; ξAsp(βξ-Me) = CC(C(=O)O)C(N)C(=O)O; X2 = O=C(CCc1ccc(N[*:1])cc1)[*:2]; ξAbu(3ξ-NH2) = CC(N)C(N)C(=O)O; Lauroyl = CCCCCCCCCCCC(=O)*; Pip = O=C(O)[CH]1CCCCN1

Test system: Staphylococcus aureus (MSSA)
Outline: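 Broth microdilution MIC per NCCLS M7-A6 with doubling serial dilutions, in cation-adjusted Mueller-Hinton broth supplemented with 0.625 mM calcium.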

[1] = S. aureus (MSSA), CAMHB supplemented with 0.625 mM calcium, 24 hours at about 37° C., a range = compound tested multiple times

Row | SMILES | MIC (24 h) | MIC [1]
1 | C=CC(=O)NC(C)C1NC(=O)CNC(=O)C(CC(=O)O)NC(=O)CNC(=O)C(CC(=O)O)NC(=O)C(C(C)C(=O)O)NC(=O)C2CCCCN2C(=O)C(NC(=O)C(CC(=O)O)NC(=O)CCCCCCCCCCCCCC)C(C)NC(=O)C2CCCN2C(=O)C(C(C)C)NC1=O (stereo not drawn) [Compound 213, C15-Amphomycin-9-Acryl] (Pentadecanoyl-D[ξAbu(βξ-NH2)][Pip][ξAsp(βξ-Me)]DGDG[X39]VP; lactam 2-C; configuration not given here) | 2 µg/mL | –
2 | CCCCCCCCCCCCCC(=O)NC(CC(=O)O)C(=O)NC1C(=O)N2CCCCC2C(=O)NC(C(C)C(=O)O)C(=O)NC(CC(=O)O)C(=O)NCC(=O)NC(CC(=O)O)C(=O)NCC(=O)NC(C(C)N)C(=O)NC(C(C)C)C(=O)N2CCCC2C(=O)NC1C (stereo not drawn) [Compound 10, C14-Amphomycin] | 1 µg/mL | –
3 | CCCCCCCCCCCCCCCC(=O)NC(CC(=O)O)C(=O)NC1C(=O)N2CCCCC2C(=O)NC(C(C)C(=O)O)C(=O)NC(CC(=O)O)C(=O)NCC(=O)NC(CC(=O)O)C(=O)NCC(=O)NC(C(C)NC(=O)CNC(=O)[C@@H](N)CCCCN)C(=O)NC(C(C)C)C(=O)N2CCCC2C(=O)NC1C (stereo partly drawn) [Compound 141, C16-Amphomycin-9-Gly-Lys] | – | 141/2 μg/mL
4 | CCCCCCCCCCCCCCC(=O)NC(CC(=O)O)C(=O)NC1C(=O)N2CCCCC2C(=O)NC(C(C)C(=O)O)C(=O)NC(CC(=O)O)C(=O)NCC(=O)NC(CC(=O)O)C(=O)NCC(=O)NC(C(C)NC(=O)CN(C)C(=O)[C@@H](N)CCCN)C(=O)NC(C(C)C)C(=O)N2CCCC2C(=O)NC1C (stereo partly drawn) [Compound 144, C15-Amphomycin-9-Sar-Orn] | 4 µg/mL | –
5 | CCCCCCCCCCCCCCC(=O)NC(CC(=O)O)C(=O)NC1C(=O)N2CCCCC2C(=O)NC(C(C)C(=O)O)C(=O)NC(CC(=O)O)C(=O)NCC(=O)NC(CC(=O)O)C(=O)NCC(=O)NC(C(C)NC(=O)[C@@H]2C[C@@H](O)CN2)C(=O)NC(C(C)C)C(=O)N2CCCC2C(=O)NC1C (stereo partly drawn) [Compound 167, C15-Amphomycin-9-Hyp] | 4 to 8 µg/mL | –
6 | CCCCCCCCCCCCCCC(=O)NC(CC(=O)O)C(=O)NC1C(=O)N2CCCCC2C(=O)NC(C(C)C(=O)O)C(=O)NC(CC(=O)O)C(=O)NCC(=O)NC(CC(=O)O)C(=O)NCC(=O)NC(C(C)NC(=O)CCCCC)C(=O)NC(C(C)C)C(=O)N2CCCC2C(=O)NC1C (stereo not drawn) [Compound 201, C15-Amphomycin-9-C6] | 32 µg/mL | –
7 | CCCCCCCCCCCCC(=O)NC(CC(=O)O)C(=O)NC1C(=O)N2CCCCC2C(=O)NC(C(C)C(=O)O)C(=O)NC(CC(=O)O)C(=O)NCC(=O)NC(CC(=O)O)C(=O)NCC(=O)NC(C(C)NC(=O)CCN)C(=O)NC(C(C)C)C(=O)N2CCCC2C(=O)NC1C (stereo not drawn) [Compound 54, C13-Amphomycin-9-(β-Ala)] | – | 54/2-4 μg/mL
8 | CCCCCCCCCCCCCCC(=O)NC(CC(=O)O)C(=O)NC1C(=O)N2CCCCC2C(=O)NC(C(C)C(=O)O)C(=O)NC(CC(=O)O)C(=O)NCC(=O)NC(CC(=O)O)C(=O)NCC(=O)NC(C(C)NC(=O)CCCCCCCCCCC)C(=O)NC(C(C)C)C(=O)N2CCCC2C(=O)NC1C (stereo not drawn) [Compound 347, C15-Amphomycin-9-C12] | >64 µg/mL | –
9 | CCCCCCCCCCCC(=O)Nc1ccc(CCC(=O)Nc2ccc(CCC(=O)NC(CC(=O)O)C(=O)NC3C(=O)N4CCCCC4C(=O)NC(C(C)C(=O)O)C(=O)NC(CC(=O)O)C(=O)NCC(=O)NC(CC(=O)O)C(=O)NCC(=O)NC(C(C)N)C(=O)NC(C(C)C)C(=O)N4CCCC4C(=O)NC3C)cc2)cc1 (stereo not drawn) [Compound 109, C12-(p-Aminophenylpropanoyl)2-Amphomycin] (Lauroyl-[X2][X2]D[ξAbu(βξ-NH2)][Pip][ξAsp(βξ-Me)]DGDG[ξAbu(3ξ-NH2)]VP; lactam 4-C; configuration not given here) | – | 2 µg/mL
